Reference: US8192962B2, “Processes for detecting toxic substances” (Daikin Industries, Ltd., priority 2001, dated 2012)

System: Metabolism protein genes
Experiment: DNA chip mRNA expression in yeast, metabolism protein genes (Table 7)
Type: cell-based, Saccharomyces cerevisiae S288C
How it was run: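 S. cerevisiae S288C grown at 25° C in YPD were exposed in log phase for two hours to one toxic chemical at a growth-inhibiting, non-lethal concentration; untreated cells served as control. Poly(A) mRNA was reverse-transcribed with Cy3/Cy5-dUTP and hybridized to a whole-genome yeast DNA chip at 65° C for over 12 hours; values are fluorescence ratios versus untreated.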

SMILES: CCCCC[C@H](O)CC(=O)CCc1ccc(O)c(OC)c1 [(13), gingerol]
- The level of expressed mRNA in the presence of chemical substance/The level of expressed mRNA in the absence of chemical substance (yeast gene YJL099W): 2.4
- level of expressed mRNA in the presence/in the absence of chemical substance (yeast gene YJL121C): 0.7
- level of expressed mRNA in the presence/in the absence of chemical substance (yeast gene YJL167W): 0.9
- The level of expressed mRNA in the presence of chemical substance/The level of expressed mRNA in the absence of chemical substance (yeast gene YJL172W): 3.1
- level of expressed mRNA in the presence/in the absence of chemical substance (yeast gene YJL216C): 1.1
- level of expressed mRNA in the presence/in the absence of chemical substance (yeast gene YJR077C): 0.9
- The level of expressed mRNA in the presence of chemical substance/The level of expressed mRNA in the absence of chemical substance (yeast gene YJR137C): 2.1
- level of expressed mRNA in the presence/in the absence of chemical substance (yeast gene YJR143C): 0.3
- The level of expressed mRNA in the presence of chemical substance/The level of expressed mRNA in the absence of chemical substance (yeast gene YJR148W): 1.1
- The level of expressed mRNA in the presence of chemical substance/The level of expressed mRNA in the absence of chemical substance (yeast gene YJR155W): 5.7
- The level of expressed mRNA in the presence of chemical substance/The level of expressed mRNA in the absence of chemical substance (yeast gene YKL035W): 2.0
- level of expressed mRNA in the presence/in the absence of chemical substance (yeast gene YKL060C): 1.2
- The level of expressed mRNA in the presence of chemical substance/The level of expressed mRNA in the absence of chemical substance (yeast gene YKL091C): 2.0
- The level of expressed mRNA in the presence of chemical substance/The level of expressed mRNA in the absence of chemical substance (yeast gene YKL104C): 2.2
- level of expressed mRNA in the presence/in the absence of chemical substance (yeast gene YKL148C): 0.8
- The level of expressed mRNA in the presence of chemical substance/The level of expressed mRNA in the absence of chemical substance (yeast gene YKL152C): 2.7
- level of expressed mRNA in the presence/in the absence of chemical substance (yeast gene YKL157W): 2.3
- The level of expressed mRNA in the presence of chemical substance/The level of expressed mRNA in the absence of chemical substance (yeast gene YKL213C): 2.1
- The level of expressed mRNA in the presence of chemical substance/The level of expressed mRNA in the absence of chemical substance (yeast gene YKL215C): 2.6
- level of expressed mRNA in the presence/in the absence of chemical substance (yeast gene YKR034W): 1.2
- The level of expressed mRNA in the presence of chemical substance/The level of expressed mRNA in the absence of chemical substance (yeast gene YKR039W): 1.3
- The level of expressed mRNA in the presence of chemical substance/The level of expressed mRNA in the absence of chemical substance (yeast gene YLL058W): 2.3
- level of expressed mRNA in the presence/in the absence of chemical substance (yeast gene YLR006C): 0.8
- level of expressed mRNA in the presence/in the absence of chemical substance (yeast gene YLR044C): 1.7
- level of expressed mRNA in the presence/in the absence of chemical substance (yeast gene YLR056W): 0.2
- level of expressed mRNA in the presence/in the absence of chemical substance (yeast gene YLR058C): 0.3
- level of expressed mRNA in the presence/in the absence of chemical substance (yeast gene YLR081W): 0.6
- level of expressed mRNA in the presence/in the absence of chemical substance (yeast gene YLR089C): 1.0
- The level of expressed mRNA in the presence of chemical substance/The level of expressed mRNA in the absence of chemical substance (yeast gene YLR180W): 0.6
- The level of expressed mRNA in the presence of chemical substance/The level of expressed mRNA in the absence of chemical substance (yeast gene YLR273C): 1.7
- level of expressed mRNA in the presence/in the absence of chemical substance (yeast gene YLR284C): 0.8
- The level of expressed mRNA in the presence of chemical substance/The level of expressed mRNA in the absence of chemical substance (yeast gene YLR299W): 2.9
- level of expressed mRNA in the presence/in the absence of chemical substance (yeast gene YLR304C): 0.5
- The level of expressed mRNA in the presence of chemical substance/The level of expressed mRNA in the absence of chemical substance (yeast gene YLR307W): 1.0
- The level of expressed mRNA in the presence of chemical substance/The level of expressed mRNA in the absence of chemical substance (yeast gene YLR348C): 1.9
- level of expressed mRNA in the presence/in the absence of chemical substance (yeast gene YLR354C): 1.0
- level of expressed mRNA in the presence/in the absence of chemical substance (yeast gene YLR372W): 0.1
- level of expressed mRNA in the presence/in the absence of chemical substance (yeast gene YML022W): 0.2
- level of expressed mRNA in the presence/in the absence of chemical substance (yeast gene YMR011W): 0.4
- level of expressed mRNA in the presence/in the absence of chemical substance (yeast gene YMR015C): 0.4
- level of expressed mRNA in the presence/in the absence of chemical substance (yeast gene YMR083W): 0.9
- The level of expressed mRNA in the presence of chemical substance/The level of expressed mRNA in the absence of chemical substance (yeast gene YMR189W): 0.9
- level of expressed mRNA in the presence/in the absence of chemical substance (yeast gene YMR205C): 1.3
- level of expressed mRNA in the presence/in the absence of chemical substance (yeast gene YMR261C): 1.6
- The level of expressed mRNA in the presence of chemical substance/The level of expressed mRNA in the absence of chemical substance (yeast gene YMR296C): 0.9
- level of expressed mRNA in the presence/in the absence of chemical substance (yeast gene YMR323W): 1.8
- The level of expressed mRNA in the presence of chemical substance/The level of expressed mRNA in the absence of chemical substance (yeast gene YNL012W): 2.9
- level of expressed mRNA in the presence/in the absence of chemical substance (yeast gene YNL025C): 1.3
- The level of expressed mRNA in the presence of chemical substance/The level of expressed mRNA in the absence of chemical substance (yeast gene YNL037C): 1.9
- The level of expressed mRNA in the presence of chemical substance/The level of expressed mRNA in the absence of chemical substance (yeast gene YNL045W): 2.6
- The level of expressed mRNA in the presence of chemical substance/The level of expressed mRNA in the absence of chemical substance (yeast gene YNL104C): 2.1
- The level of expressed mRNA in the presence of chemical substance/The level of expressed mRNA in the absence of chemical substance (yeast gene YNL106C): 0.9
- The level of expressed mRNA in the presence of chemical substance/The level of expressed mRNA in the absence of chemical substance (yeast gene YNL169C): 1.7
- level of expressed mRNA in the presence/in the absence of chemical substance (yeast gene YNL192W): 2.7
- The level of expressed mRNA in the presence of chemical substance/The level of expressed mRNA in the absence of chemical substance (yeast gene YNL322C): 0.8
- The level of expressed mRNA in the presence of chemical substance/The level of expressed mRNA in the absence of chemical substance (yeast gene YNL331C): 3.1
- The level of expressed mRNA in the presence of chemical substance/The level of expressed mRNA in the absence of chemical substance (yeast gene YNL332W): 2.1
- The level of expressed mRNA in the presence of chemical substance/The level of expressed mRNA in the absence of chemical substance (yeast gene YNR002C): 2.1
- The level of expressed mRNA in the presence of chemical substance/The level of expressed mRNA in the absence of chemical substance (yeast gene YNR019W): 2.1
- The level of expressed mRNA in the presence of chemical substance/The level of expressed mRNA in the absence of chemical substance (yeast gene YNR059W): 2.4
- The level of expressed mRNA in the presence of chemical substance/The level of expressed mRNA in the absence of chemical substance (yeast gene YOL058W): 1.2
- level of expressed mRNA in the presence/in the absence of chemical substance (yeast gene YOL086C): 1.7
- level of expressed mRNA in the presence/in the absence of chemical substance (yeast gene YOL108C): 1.3
- level of expressed mRNA in the presence/in the absence of chemical substance (yeast gene YOL116W): 0.8
- The level of expressed mRNA in the presence of chemical substance/The level of expressed mRNA in the absence of chemical substance (yeast gene YOL143C): 1.2
- level of expressed mRNA in the presence/in the absence of chemical substance (yeast gene YOL156W): 1.7
- The level of expressed mRNA in the presence of chemical substance/The level of expressed mRNA in the absence of chemical substance (yeast gene YOL165C): 3.7
- level of expressed mRNA in the presence/in the absence of chemical substance (yeast gene YOR002W): 0.6
- level of expressed mRNA in the presence/in the absence of chemical substance (yeast gene YOR085W): 1.0
- The level of expressed mRNA in the presence of chemical substance/The level of expressed mRNA in the absence of chemical substance (yeast gene YOR099W): 1.6
- level of expressed mRNA in the presence/in the absence of chemical substance (yeast gene YOR103C): 0.8
- level of expressed mRNA in the presence/in the absence of chemical substance (yeast gene YOR108W): 1.3
- level of expressed mRNA in the presence/in the absence of chemical substance (yeast gene YOR128C): 0.4
- The level of expressed mRNA in the presence of chemical substance/The level of expressed mRNA in the absence of chemical substance (yeast gene YOR130C): 2.1
- The level of expressed mRNA in the presence of chemical substance/The level of expressed mRNA in the absence of chemical substance (yeast gene YOR136W): 1.5
- level of expressed mRNA in the presence/in the absence of chemical substance (yeast gene YOR142W): 1.4
- level of expressed mRNA in the presence/in the absence of chemical substance (yeast gene YOR176W): 1.5
- level of expressed mRNA in the presence/in the absence of chemical substance (yeast gene YOR178C): 1.0
- level of expressed mRNA in the presence/in the absence of chemical substance (yeast gene YOR251C): 1.0
- The level of expressed mRNA in the presence of chemical substance/The level of expressed mRNA in the absence of chemical substance (yeast gene YOR336W): 2.1
- The level of expressed mRNA in the presence of chemical substance/The level of expressed mRNA in the absence of chemical substance (yeast gene YOR347C): 1.8
- level of expressed mRNA in the presence/in the absence of chemical substance (yeast gene YOR348C): 1.1
- The level of expressed mRNA in the presence of chemical substance/The level of expressed mRNA in the absence of chemical substance (yeast gene YPL017C): 1.9
- level of expressed mRNA in the presence/in the absence of chemical substance (yeast gene YPL028W): 0.9
- level of expressed mRNA in the presence/in the absence of chemical substance (yeast gene YPL057C): 1.3
- level of expressed mRNA in the presence/in the absence of chemical substance (yeast gene YPL135W): 1.2
- level of expressed mRNA in the presence/in the absence of chemical substance (yeast gene YPL148C): 0.6
- level of expressed mRNA in the presence/in the absence of chemical substance (yeast gene YPR113W): 0.7
- level of expressed mRNA in the presence/in the absence of chemical substance (yeast gene YPR165W): 1.0
- The level of expressed mRNA in the presence of chemical substance/The level of expressed mRNA in the absence of chemical substance (yeast gene YPR167C): 1.9
- level of expressed mRNA in the presence/in the absence of chemical substance (yeast gene YPR183W): 1.6
